Source: the supplement of paper PMC10784567
± gives the standard deviation of the averaged measurements.

Compound: C=C1C[C@H]2C=Nc3cc(OCCCCCOc4cc5c(cc4OC)C(=O)N4CC(=C)C[C@H]4C=N5)c(OC)cc3C(=O)N2C1 [SG2057]
Assay: absolute IC50 (cell viability, CellTiter-Glo); higher = less potent
Conditions: treatment time: 3 days
Procedure: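 Large cancer cell line panel screens in 384-well plates. Cells were treated for 3 days with a 9-point dose titration of the free PBD dimer SG2057; viability was read with CellTiter-Glo. Absolute IC50 came from a four-parameter Hill fit normalised to the median of vehicle (DMSO) wells. Several independent screens (projects) per cell line are averaged; values in µM, lowest-dose floor about 1.524e-5 µM.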

Test System	absolute IC50
4T1 Luciferase	3.01 nM
51BLim 10	0.371 nM
59M	1.47 nM
66c14	0.725 nM
105KC (DODx)	3.56 nM
143B	0.191 nM
501A	0.378 ± 0.25 nM
537 MEL	1.23 ± 0.94 nM
769-P	4.38 ± 4.6 nM
786-O	1.24 ± 1.8 nM
1321N1	0.0321 nM
1624-16997 (Tumor A)	0.926 nM
1624-16997 (Tumor B)	0.909 nM
1624-16997 (Tumor C)	1.55 nM
1624-17082 (Tumor A)	0.887 nM
1624-17091 (Tumor A)	0.849 nM
1624-17091 (Tumor B)	2.12 nM
1624-17095 (Tumor A)	1.31 nM
1624-17095 (Tumor B)	5.51 nM
1624-17095 (Tumor C)	0.777 nM
1624-17147 (Tumor A)	1.27 nM
1624-17147 (Tumor B)	1.55 nM
4498-1636 Mel-nBR1	0.565 nM
4498-14745 Mel-BR3	0.39 nM
4498-16820 Mel-BR1	0.55 nM

Test System	absolute IC50
4498-16820 Mel-BR1 X1	0.911 nM
8305C	0.706 nM
8505C	0.595 nM
23132/87	1 ± 1.2 nM
A20	< 0.0152 nM
A172	0.554 nM
A549	0.926 ± 1.4 nM
A-427	0.831 nM
A-498	2.47 nM
A-673	0.0661 nM
AB22	4.95 nM
ABC-1	0.365 ± 0.24 nM
AE17	0.259 nM
AM-38	4.53 nM
AMO-1	0.409 ± 0.15 nM
AN3 CA	1.45 nM
ASH-3	0.925 nM
ATRFLOX	0.211 ± 0.41 nM
AU565	0.835 ± 0.35 nM
AsPC-1	5.12 ± 5.9 nM
B16-F1	0.595 nM
B16-F10	1.01 nM
B16-F10 Luciferase	0.894 nM
B-CPAP	0.345 nM
BA/F3	0.114 nM

Test System	absolute IC50
BE(2)-M17	0.494 nM
BEN	43.1 nM
BFTC-909	0.681 nM
BHY	0.183 nM
BICR 10	0.421 nM
BICR 22	0.854 nM
BOKU	0.258 nM
BT-20	1.72 ± 0.74 nM
BT-474	4.09 ± 3.7 nM
BT-B	0.864 nM
C2BBe1	7.31 ± 3.8 nM
C32	0.31 ± 0.098 nM
C32TG	0.2 nM
C170	2.97 ± 1.1 nM
C-33 A	0.0527 nM
CA46	0.354 ± 0.53 nM
CAL 27	0.164 nM
CAL-12T	3.57 ± 3.2 nM
CAL-85-1	1.67 ± 0.48 nM
CAL-120	2.01 ± 2.9 nM
CAMA-1	5.02 nM
CCF-STTG1	2.87 nM
CFPAC-1	0.526 ± 0.55 nM
CGTH-W-1	0.189 nM
CHL-1	1.39 ± 1.1 nM

Test System	absolute IC50
CHP-212	0.105 nM
CI-1	0.104 ± 0.014 nM
CL-11	21.7 nM
CL-34	1.69 ± 3.5 nM
COLO 201	0.782 nM
COLO 205	1.52 ± 0.48 nM
COLO 206F	2.54 ± 2.5 nM
COLO 320	12 nM
COLO 320DM	20.2 nM
COLO 320HSR	1.9 nM
COLO 678	5.65 ± 4.5 nM
COLO 679	0.435 ± 0.34 nM
COLO 680N	0.602 nM
COLO 684	5 nM
COLO 685	1.32 nM
COLO 704	3.36 ± 2.6 nM
COLO 783	3.44 nM
COLO 792	3.47 nM
COLO 794	0.0985 ± 0.063 nM
COLO 818	3.37 ± 4.1 nM
COLO 824	0.192 nM
COLO 829	0.32 ± 0.18 nM
COLO 853	1 ± 0.73 nM
COLO 858	1.72 ± 1.4 nM
COR-L26	0.211 ± 0.31 nM

Test System	absolute IC50
COR-L47	4.01 nM
COR-L88	5.79 nM
COR-L279	0.082 nM
COV318	5.85 ± 6.6 nM
COV362.4	4.61 ± 1.7 nM
COV413A	2.34 nM
COV413B	2.73 ± 3.9 nM
COV434	0.188 ± 0.19 nM
COV504	3.76 ± 4 nM
CT26.WT	5.3 nM
CX-1	1.82 ± 2 nM
Ca Ski	0.254 nM
CaR-1	0.535 ± 0.21 nM
Caco-2	5.17 ± 0.99 nM
Caki-1	0.052 nM
Caki-2	10.2 ± 19 nM
Calu-3	1.55 ± 0.058 nM
Calu-6	6.78 nM
Capan-2	4.33 ± 0.82 nM
ChaGo-K-1	3.31 ± 1.5 nM
Clone M-3 Cloudman S91 melanoma	0.202 nM
CoCM-1	13.5 nM
DAN-G	0.694 ± 0.32 nM
DEOC-1	18.9 nM
DLD-1	1.01 ± 0.81 nM

Test System	absolute IC50
DMS 273	1.38 nM
DOV 13	0.241 ± 0.31 nM
Daudi	0.155 ± 0.24 nM
Detroit 562	1.79 ± 2.6 nM
EB-3	0.637 ± 0.85 nM
EBC-1	0.876 nM
ECC-1	1.04 nM
EFE-184	5.81 ± 7.5 nM
EFM-192A	1.2 nM
EL4	0.0929 nM
EMT6 Luciferase	0.606 nM
EPLC-272H	0.205 nM
FA9JTOTERT	0.435 nM
FOX-NY	0.0773 nM
FTC-133	0.122 nM
FTC-238	0.101 nM
FU97	1.57 nM
FaDu	0.35 nM
G28T	0.984 ± 1 nM
G59	0.803 ± 0.82 nM
G61	0.189 ± 0.015 nM
G96	0.588 nM
G111	0.208 ± 0.22 nM
G121	0.799 ± 0.38 nM
G124	2.54 nM

Test System	absolute IC50
G140	1.28 ± 1.7 nM
G141	0.924 ± 0.65 nM
G142	0.556 ± 1 nM
G-401	0.305 ± 0.16 nM
G-402	0.349 ± 0.14 nM
GB-1	1.12 nM
GCH-nu-YS	0.242 nM
GI-1	0.311 nM
GOS-3	0.597 nM
GOTOP3	0.217 nM
GP5d	1.93 ± 1.5 nM
GR-M	0.107 ± 0.064 nM
H322T	2.68 ± 2.1 nM
HCA-1	4.69 nM
HCA-7	2.01 ± 1.7 nM
HCC44	0.762 ± 0.59 nM
HCC60 (NCI-H23)	0.268 nM
HCC70 (DODx)	4.647 ± 0.017 nM
HCC78	0.114 ± 0.099 nM
HCC89	4.66 ± 3.1 nM
HCC193	3.17 ± 2.2 nM
HCC364	2.86 ± 4.4 nM
HCC366	4.65 nM
HCC515	0.134 ± 0.17 nM
HCC597	6.01 nM

Test System	absolute IC50
HCC827	2.16 ± 4.3 nM
HCC850	0.178 nM
HCC880	2.86 nM
HCC1010	0.134 ± 0.12 nM
HCC1054	0.292 nM
HCC1159	0.67 nM
HCC1171	1.01 ± 0.16 nM
HCC1187	0.601 ± 0.69 nM
HCC1263	5.65 ± 3.7 nM
HCC1319	12.8 nM
HCC1347	2.49 nM
HCC1428	6.01 ± 0.31 nM
HCC1482	0.173 nM
HCC1493	0.412 ± 0.72 nM
HCC1534	3.18 ± 2.4 nM
HCC1576	0.476 nM
HCC1623	5.3 nM
HCC1937	4.67 ± 4.4 nM
HCC1954	1.35 ± 3.1 nM
HCC2218	1.16 nM
HCC2279	3.55 ± 6.2 nM
HCC2302	8.98 nM
HCC2450	5.43 nM
HCC2688	0.282 nM
HCC2885	0.801 nM

Test System	absolute IC50
HCC2935	5.29 ± 3.4 nM
HCC3335	1.59 nM
HCC3418	0.0218 nM
HCC4011	4.15 ± 4.6 nM
HCC4017	0.193 nM
HCC4019	4.51 ± 2.9 nM
HCC-15	2.35 ± 3.1 nM
HCS-2	0.957 nM
HCSC-1	3.07 nM
HCT-8	1.43 nM
HDQ-P1	4.08 ± 4.4 nM
HEC-1-A	3.86 nM
HEC-1-B	6.12 nM
HEC-6	0.536 nM
HEC-50B	0.713 nM
HEC-59	0.472 nM
HEC-88nu	3.07 nM
HEC-108	1.42 nM
HEC-116	0.464 nM
HEC-151	0.352 nM
HEC-251	1.28 nM
HEC-265	0.555 nM
HEL	0.067 ± 0.0071 nM
HEp-2	0.322 nM
HGC-27	0.406 ± 0.086 nM

Test System	absolute IC50
HL-60	5.24 nM
HLE	2.7 nM
HLF	0.503 ± 0.72 nM
HM7	0.488 ± 0.27 nM
HMVII	0.434 ± 0.73 nM
HMY-1	1.17 ± 0.94 nM
HN	0.225 nM
HNT-34	0.076 ± 0.067 nM
HOP-18	3.89 nM
HPAC	13.2 ± 25 nM
HPAF-II	4.04 ± 0.15 nM
HSC-5	0.621 nM
HT-3	0.212 nM
HT-29	2.89 ± 2 nM
HT-55	3.75 ± 2.6 nM
HT-115	1.59 ± 0.21 nM
HT-1080	0.569 ± 0.14 nM
HUH-7	1.82 nM
HUP-T3	0.645 ± 0.72 nM
HUP-T4	1.09 ± 1.1 nM
HeLa	1.8 nM
